Reference: patent US11179348B2, “Combination comprising pterostilbene for the treatment of cancer” (FUNDACIÓN UNIVERSIDAD CATÓLICA DE VALENCIA SAN VICENTE …, priority 2015, dated 2021)
Marks after values point to notes of the source that are not given here.

Tests used:
[1] = test system: A2058 cells isolated from tumor-bearing mice; assay: Chemosensitization of cultured A2058 cells isolated from xenografts; format: cell-based, human; conditions: A2058; 72 h-cultured; PL 1 μM, Chemo 0.25 μM PAC.PBP; Pter = in vivo pretreatment
Description: FIG. 5. Chemosensitization effect of GSH depletion (A) or sod1-AS (B) in melanoma cells isolated from Pter-treated mice. Melanoma cells were cultured as in FIG. 1C. PAC.PBP (100 ng/ml) was added to the culture flasks 24 h after seeding. […] Data are mean values±SD for 5-6 different experiments (*p<0.01, comparing all experimental conditions vs controls).
FIGS. 18-25. Effect of piperlongumine and I-BET762, as GSH depleting and chemosensitizing agents, in in vitro growing human melanoma, pancreatic, breast, lung, liver, prostate, ovarian, and colorectal cancer cells. Cancer cells, isolated from Pter-treated tumor-bearing mice, were cultured as indicated under Methods. Chemotherapy (0.25 μM PAC.PBP in A2058 melanoma and MDA-MB-231 breast carcinoma cells; 0.125 μM PAC.PBP and 25 μM GTB in AsPC-1 pancreatic cancer cells; 1 μM VRB and 15 μM cisPt in A459 lung carcinoma cells; 0.15 μM DXR in HepG2 hepatocellular carcinoma cells; 15 nM DCT in PC-3 prostate carcinoma cells; 0.15 μM PAC.PBP and 25 μM CarboPt in SK-OV-3 ovarian carcinoma cells; 3 μM 5-FU, 1 μM FA and 0.6 μM IRI in HT-29 colorectal carcinoma cells) was added to the cultured flasks 24 h after seeding. PL (1 μM in A2058 and AsPC-1 cells; 0.5 μM in A549 and HT-29 cells; 0.2 μM in HepG2, PC-3, and SK-OV-3 cells; 0.1 μM in MDA-MB-231 cells) or I-BET762 (0.5 μM in HT-29 cells; 0.2 μM in A2058, AsPC-1, HepG2, PC-3, and SK-OV-3 cells; 0.1 μM in A549 and MDA-MB-231 cells) were added 6 h later. Data are mean values±SD for 4-5 different experiments per cell line (*p<0.05 and **p<0.01, comparing all experimental conditions versus control. PL, piperlongumine; PAC.PBP, paclitaxel protein-bound particles; GTB, gemcitabine; DXR, doxorubicin; VRB, vinorelbin; CisPt, cisplatin; docetaxel, DCT; CarboPt, carboplatin; 5-FU, 5-fluoracil; FA, folinic acid; IRI, irinotecan; 5-FU+FA+IRI=FOLFIRI).
Human A2058, MeWo and MelJuso melanoma cells, and mouse AtT-20 pituitary corticotroph tumor cells were from the American Type Culture Collection (ATCC). Human HEMa-LP epidermal melanocytes were from Life Technologies (Grand Island, N.Y.). Human MDA-MB-231 (triple negative: ER−, PR−, HER2−) and MCF-7 (ER+, PR+, HER2−) breast adenocarcinoma, A549 lung adenocarcinoma (NSCLC), HepG2 hepatocellular carcinoma, LNCaP (AR+) and PC-3 (AR−) prostate adenocarcinoma, SK-OV-3 epithelial ovarian carcinoma, and HT-29 and Caco-2 colorectal carcinoma cells were from the American Type Culture Collection. Cells were grown in Dulbecco's modified Eagle's medium (DMEM) (Invitrogen, San Diego, Calif.), pH 7.4, supplemented with 10% heat-inactivated FCS (Biochrom KG, Berlin, Germany), 100 units/ml penicillin and 100 μg/ml streptomycin. Cells were plated, at a density of 20,000 cells/cm2, and cultured at 37° C. in a humidified atmosphere with 5% CO2. Cells were harvested by incubation for 5 min with 0.05% (w/v) trypsin (Sigma, St. Louis, Mo.) in PBS (10 mM sodium phosphate, 4 mM KCl, 137 mM NaCl), pH 7.4, containing 0.3 mM EDTA, followed by the addition of 10% FCS to inactivate the trypsin. Cell numbers were determined using a Coulter Counter (Coulter Electronic Inc., Miami, Fla.). Cells were allowed to attach for 12 h before any treatment addition. Cellular viability was assessed as previously reported (Mena, S. et al. Clin Cancer Res 13, 2658-2666 (2007)), by measuring trypan blue exclusion and leakage of lactate dehydrogenase activity.
Isolation of Tumor Cells from Mouse Xenografts Using Enzymatic Digestion and a double Ficoll gradient. […]

BxPC-3 pancreatic cancer = assay: In vivo growth of BxPC-3 pancreatic cancer xenografts; set-up: species or system human; conditions: BxPC-3-RFP; 35 days after inoculation; Pter and/or CRC
[2] = test system: MDA-MB-231 cells isolated from tumor-bearing mice; assay: Chemosensitization of cultured MDA-MB-231 cells isolated from xenografts; format: cell-based, human; conditions: 72 h-cultured, PL 0.1 μM, Chemo 0.25 μM PAC.PBP, Pter = in vivo pretreatment
Description: FIGS. 18-25. Effect of piperlongumine and I-BET762, as GSH depleting and chemosensitizing agents, in in vitro growing human melanoma, pancreatic, breast, lung, liver, prostate, ovarian, and colorectal cancer cells. Cancer cells, isolated from Pter-treated tumor-bearing mice, were cultured as indicated under Methods. Chemotherapy (0.25 μM PAC.PBP in A2058 melanoma and MDA-MB-231 breast carcinoma cells; 0.125 μM PAC.PBP and 25 μM GTB in AsPC-1 pancreatic cancer cells; 1 μM VRB and 15 μM cisPt in A459 lung carcinoma cells; 0.15 μM DXR in HepG2 hepatocellular carcinoma cells; 15 nM DCT in PC-3 prostate carcinoma cells; 0.15 μM PAC.PBP and 25 μM CarboPt in SK-OV-3 ovarian carcinoma cells; 3 μM 5-FU, 1 μM FA and 0.6 μM IRI in HT-29 colorectal carcinoma cells) was added to the cultured flasks 24 h after seeding. […]
Human A2058, MeWo and MelJuso melanoma cells, and mouse AtT-20 pituitary corticotroph tumor cells were from the American Type Culture Collection (ATCC). […] Cell numbers were determined using a Coulter Counter (Coulter Electronic Inc., Miami, Fla.). […] Cellular viability was assessed as previously reported (Mena, S. et al. Clin Cancer Res 13, 2658-2666 (2007)), by measuring trypan blue exclusion and leakage of lactate dehydrogenase activity. […]

COc1cc(/C=C/c2ccc(O)cc2)cc(OC)c1 [Pter, trans-3,5-dimethoxy-4′-hydroxystilbene]
Viable cells [1]: 1015 ± 144 ×10^6
Tumor vol. (BxPC-3 pancreatic cancer): 226 ± 63* mm^3
Viable cells [2]: 966 ± 177 ×10^6
